How the values were obtained:
Experiment in all cases: relative viability (nuclei count vs DMSO), 5 days (fraction); higher = more cells survive
ChaGo-K-1 = tested on: ChaGo-K-1
How it was run: (§1)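 Lung cancer cell lines in 1536-well plates were dosed by pin tool the day after seeding, either with one drug alone or with a fixed anchor-drug dose plus five library-drug doses (not always all listed) in √10 steps. After 5 days, cells were fixed and their nuclei stained in one step (final 0.05% Triton X-100, 1% formaldehyde, 1 ug/ml Hoechst), then counted on 4× images. Relative viability is the nuclei count in treated wells divided by that in vehicle wells. Values are medians of duplicate plates.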

NCI-H596 = tested on: NCI-H596
How it was run: as §1

NCI-H1734 = tested on: NCI-H1734
How it was run: as §1

NCI-H1755 = tested on: NCI-H1755
How it was run: as §1

NCI-H2009 = tested on: NCI-H2009
How it was run: as §1

CAL-12T = tested on: CAL-12T
How it was run: as §1

NCI-H2126 = tested on: NCI-H2126
How it was run: as §1

NCI-H322M = tested on: NCI-H322M
How it was run: as §1

NCI-H647 = tested on: NCI-H647
How it was run: as §1

LXF-289 = tested on: LXF-289
How it was run: as §1

SW 900 = tested on: SW 900
How it was run: as §1

LK-2 = tested on: LK-2
How it was run: as §1

PC-14 = tested on: PC-14
How it was run: as §1

NCI-H2087 = tested on: NCI-H2087
How it was run: as §1

NCI-H522 = tested on: NCI-H522
How it was run: as §1

EMC-BAC-2 = tested on: EMC-BAC-2
How it was run: as §1

NCI-H2170 = tested on: NCI-H2170
How it was run: as §1

NCI-H3122 = tested on: NCI-H3122
How it was run: as §1

H3255 = tested on: H3255
How it was run: as §1

NCI-H441 = tested on: NCI-H441
How it was run: as §1

NCI-H1651 = tested on: NCI-H1651
How it was run: as §1

HOP-62 = tested on: HOP-62
How it was run: as §1

201T = tested on: 201T
How it was run: as §1

NCI-H1563 = tested on: NCI-H1563
How it was run: as §1

For `CCCCCCCCCCCC1=C(O)C(=O)C=C(O)C1=O` [Embelin] + Nc1nc2[nH]cc(CCc3ccc(C(=O)N[C@@H](CCC(=O)O)C(=O)O)cc3)c2c(=O)[nH]1 [Pemetrexed] (partner 0.2 µM), the relative viability (ChaGo-K-1; first compound 0.08 µM) was 0.264, the relative viability (ChaGo-K-1; first compound 0.8 µM) was 0.258 and the relative viability (ChaGo-K-1; first compound 2.53 µM) was 0.249. It also gave a relative viability (ChaGo-K-1; first compound 8 µM) of 0.251, a relative viability (NCI-H596; first compound 0.08 µM) of 0.478 and a relative viability (NCI-H596; first compound 0.8 µM) of 0.507. The relative viability (NCI-H596; first compound 2.53 µM) was 0.53, the relative viability (NCI-H596; first compound 8 µM) was 0.445 and the relative viability (NCI-H1734; first compound 0.08 µM) was 0.434. For the same compound, the relative viability (NCI-H1734; first compound 0.8 µM) was 0.447, the relative viability (NCI-H1734; first compound 2.53 µM) was 0.414 and the relative viability (NCI-H1734; first compound 8 µM) was 0.401. It also gave a relative viability (NCI-H1755; first compound 0.08 µM) of 0.448, a relative viability (NCI-H1755; first compound 0.8 µM) of 0.468 and a relative viability (NCI-H1755; first compound 2.53 µM) of 0.433. The relative viability (NCI-H1755; first compound 8 µM) was 0.46, the relative viability (NCI-H2009; first compound 0.08 µM) was 1.08 and the relative viability (NCI-H2009; first compound 0.8 µM) was 1.09. The relative viability (NCI-H2009; first compound 2.53 µM) was 1.06, the relative viability (NCI-H2009; first compound 8 µM) was 1.01 and the relative viability (CAL-12T; first compound 0.08 µM) was 1.11. The relative viability (CAL-12T; first compound 0.8 µM) was 1.4, the relative viability (CAL-12T; first compound 2.53 µM) was 1.1 and the relative viability (CAL-12T; first compound 8 µM) was 1.06. For the same compound, the relative viability (NCI-H2126; first compound 0.08 µM) was 0.735, the relative viability (NCI-H2126; first compound 0.8 µM) was 0.636 and the relative viability (NCI-H2126; first compound 2.53 µM) was 0.654. The relative viability (NCI-H2126; first compound 8 µM) was 0.69, the relative viability (NCI-H322M; first compound 0.08 µM) was 0.598 and the relative viability (NCI-H322M; first compound 0.8 µM) was 0.625. The relative viability (NCI-H322M; first compound 2.53 µM) was 0.646, the relative viability (NCI-H322M; first compound 8 µM) was 0.667 and the relative viability (NCI-H647; first compound 0.08 µM) was 0.19. The relative viability (NCI-H647; first compound 0.8 µM) was 0.246, the relative viability (NCI-H647; first compound 2.53 µM) was 0.169 and the relative viability (NCI-H647; first compound 8 µM) was 0.214. For the same compound, the relative viability (LXF-289; first compound 0.08 µM) was 0.863, the relative viability (LXF-289; first compound 0.8 µM) was 0.915 and the relative viability (LXF-289; first compound 2.53 µM) was 0.866. The relative viability (LXF-289; first compound 8 µM) was 1.08, the relative viability (SW 900; first compound 0.08 µM) was 0.495 and the relative viability (SW 900; first compound 0.8 µM) was 0.527. For the same compound, the relative viability (SW 900; first compound 2.53 µM) was 0.52, the relative viability (SW 900; first compound 8 µM) was 0.473 and the relative viability (LK-2; first compound 0.08 µM) was 0.335. For the same compound, the relative viability (LK-2; first compound 0.8 µM) was 0.227, the relative viability (LK-2; first compound 2.53 µM) was 0.385 and the relative viability (LK-2; first compound 8 µM) was 0.289. For the same compound, the relative viability (PC-14; first compound 0.08 µM) was 0.158, the relative viability (PC-14; first compound 0.8 µM) was 0.126 and the relative viability (PC-14; first compound 2.53 µM) was 0.134. The relative viability (PC-14; first compound 8 µM) was 0.153, the relative viability (NCI-H2087; first compound 0.08 µM) was 0.745 and the relative viability (NCI-H2087; first compound 0.8 µM) was 0.517. The relative viability (NCI-H2087; first compound 2.53 µM) was 0.748, the relative viability (NCI-H2087; first compound 8 µM) was 0.646 and the relative viability (NCI-H522; first compound 0.08 µM) was 0.901. The relative viability (NCI-H522; first compound 0.8 µM) was 1.06, the relative viability (NCI-H522; first compound 2.53 µM) was 0.957 and the relative viability (NCI-H522; first compound 8 µM) was 0.837. It also gave a relative viability (EMC-BAC-2; first compound 0.08 µM) of 0.472, a relative viability (EMC-BAC-2; first compound 0.8 µM) of 0.53 and a relative viability (EMC-BAC-2; first compound 2.53 µM) of 0.399. It also gave a relative viability (EMC-BAC-2; first compound 8 µM) of 0.49, a relative viability (NCI-H2170; first compound 0.08 µM) of 0.264 and a relative viability (NCI-H2170; first compound 0.8 µM) of 0.252. For the same compound, the relative viability (NCI-H2170; first compound 2.53 µM) was 0.276, the relative viability (NCI-H2170; first compound 8 µM) was 0.274 and the relative viability (NCI-H3122; first compound 0.08 µM) was 0.193. It also gave a relative viability (NCI-H3122; first compound 0.8 µM) of 0.202, a relative viability (NCI-H3122; first compound 2.53 µM) of 0.202 and a relative viability (NCI-H3122; first compound 8 µM) of 0.2. For the same compound, the relative viability (H3255; first compound 0.08 µM) was 0.566, the relative viability (H3255; first compound 0.8 µM) was 0.616 and the relative viability (H3255; first compound 2.53 µM) was 0.597. For the same compound, the relative viability (H3255; first compound 8 µM) was 0.585, the relative viability (NCI-H441; first compound 0.08 µM) was 0.255 and the relative viability (NCI-H441; first compound 0.8 µM) was 0.261. For the same compound, the relative viability (NCI-H441; first compound 2.53 µM) was 0.301, the relative viability (NCI-H441; first compound 8 µM) was 0.274 and the relative viability (NCI-H1651; first compound 0.08 µM) was 0.58. The relative viability (NCI-H1651; first compound 0.8 µM) was 0.613, the relative viability (NCI-H1651; first compound 2.53 µM) was 0.656 and the relative viability (NCI-H1651; first compound 8 µM) was 0.642. It also gave a relative viability (HOP-62; first compound 0.08 µM) of 0.384, a relative viability (HOP-62; first compound 0.8 µM) of 0.365 and a relative viability (HOP-62; first compound 2.53 µM) of 0.308. It also gave a relative viability (HOP-62; first compound 8 µM) of 0.303, a relative viability (201T; first compound 0.08 µM) of 0.347 and a relative viability (201T; first compound 0.8 µM) of 0.326. The relative viability (201T; first compound 2.53 µM) was 0.333, the relative viability (201T; first compound 8 µM) was 0.299 and the relative viability (NCI-H1563; first compound 0.08 µM) was 0.742. For the same compound, the relative viability (NCI-H1563; first compound 0.8 µM) was 0.767, the relative viability (NCI-H1563; first compound 2.53 µM) was 0.693 and the relative viability (NCI-H1563; first compound 8 µM) was 0.713.

Source: the supplement of paper PMC10307832
